Reference: the supplement of paper PMC8671470

Tests used:
Conditions in all cases: 72 h
[1] = system: HL-60; experiment: area under dose-response curve (viability, 1 nM-10 uM) (fraction (0-1)); higher = more sensitive
Procedure, shortened: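 In 384-well plates, the full library was rescreened in duplicate on HL-60 cells in RPMI 1640 with 10% FBS, at 1–10,000 nM in five tenfold concentrations, for 72 h at 37 °C, 5% CO2. Each run also held DMSO or 100 nM of one of three metabolic inhibitors. Viability was measured by CellTiter-Glo and normalised to DMSO wells and to wells with proteasome inhibitor, present at 10 μM. Any area under the curve comes from four-parameter log-logistic fitting with drc and PharmacoGx.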

[2] = system: KCL-22; experiment: cell viability (% survival relative to DMSO control, bortezomib = 0%); higher = less cytotoxic
Procedure, shortened: (§1)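 In 384-well plates pre-printed with compounds at 1, 10, 100, 1000 or 10000 nM, duplicate wells received cells from 10 AML and 5 CML lines at densities within the linear growth range. The plates stayed at 37 °C with 5% CO2 for 72 h before CellTiter-Glo luminescence was recorded. Each entry is averaged percent survival. Scaling placed vehicle at 100% and a 10 µM positive control at 0%.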

[3] = system: KG-1; experiment: as above
Procedure, shortened: as §1

[4] = system: MOLM-13; experiment: as above
Procedure, shortened: as §1

[5] = co-treatment: GSK2194069 100 nM
[6] = co-treatment: pictilisib 100 nM

| Compound | area under dose-response curve ([1]; co-treatment: AZD3965 100 nM) | area under dose-response curve ([1]; co-treatment: DMSO vehicle) | area under dose-response curve [1, 5] | area under dose-response curve [1, 6] | cell viability ([2]; 1 nM) | cell viability ([2]; 10 nM) | cell viability ([2]; 100 nM) | cell viability ([2]; 1000 nM) | cell viability ([2]; 10000 nM) | cell viability ([3]; 1 nM) | cell viability ([3]; 10 nM) | cell viability ([3]; 100 nM) | cell viability ([3]; 1000 nM) | cell viability ([3]; 10000 nM) | cell viability ([4]; 1 nM) | cell viability ([4]; 10 nM) | cell viability ([4]; 100 nM) | cell viability ([4]; 1000 nM) | cell viability ([4]; 10000 nM) |
| --- | --- | --- | --- | --- | --- | --- | --- | --- | --- | --- | --- | --- | --- | --- | --- | --- | --- | --- | --- |
| COc1ccc(C(=O)Nc2c(Cl)cncc2Cl)cc1OC1CCCC1 [Piclamilast] | < 0.0301 | < 0.0301 | < 0.0301 | < 0.0301 | 95.3% | 101% | 92.7% | 102% | 108% | 97.7% | 102% | 86% | 99.2% | 104% | 89.2% | 110% | 67.4% | 103% | 88.1% |
| O=C(NNc1ccccc1)c1ccncc1 [PluriSln 1] | 0.0541 | 0.0377 | < 0.0301 | < 0.0301 | 89.9% | 102% | 99.7% | 110% | 41.5% | 88.5% | 104% | 102% | 98.4% | 62.8% | 80.5% | 92% | 96.7% | 87.1% | 25.4% |
| CC(C)c1nc(CN(C)C(=O)N[C@H](C(=O)N[C@@H](Cc2ccccc2)C[C@H](O)[C@H](Cc2ccccc2)NC(=O)OCc2cncs2)C(C)C)cs1 [Ritonavir] | < 0.0301 | < 0.0301 | – | < 0.0301 | 99.4% | 102% | 108% | 94.5% | 87.2% | 95.7% | 96.8% | 108% | 101% | 71.1% | 104% | 104% | 95.3% | 96.2% | 99.3% |
| O=C(O)c1cc(N=Nc2ccc(S(=O)(=O)Nc3ccccn3)cc2)ccc1O [Sulfasalazine] | < 0.0301 | < 0.0301 | < 0.0301 | < 0.0301 | 107% | 97.3% | 106% | 92.9% | 124% | 103% | 89% | 112% | 43.4% | 128% | 105% | 102% | 113% | 84.6% | 136% |
| O[C@H]1[C@H]2[C@H](O)CCCN2C[C@H]1O [Swainsonine] | < 0.0301 | < 0.0301 | < 0.0301 | < 0.0301 | 88.9% | 92.3% | 102% | 98.1% | 89.9% | 108% | 107% | 92.2% | 87.9% | 93.1% | 97.8% | 94.2% | 102% | 87.7% | 85.6% |
| Cc1coc2c1C(=O)C(=O)c1c-2ccc2c1CCCC2(C)C [Tanshinone IIA] | < 0.0301 | < 0.0301 | < 0.0301 | < 0.0301 | 114% | 98.8% | 107% | 105% | 59.9% | 106% | 97.7% | 94.8% | 102% | 76.6% | 87.8% | 90.9% | 106% | 101% | 89.6% |
| Cc1cn([C@H]2C[C@H](O)[C@@H](COP(=O)(O)OP(=O)(O)O)O2)c(=O)[nH]c1=O [Thymidine diphosphate] | < 0.0301 | < 0.0301 | < 0.0301 | < 0.0301 | 111% | 89.8% | 98.3% | 97.7% | 85.6% | 101% | 95.2% | 97.5% | 95.6% | 104% | 108% | 92.1% | 110% | 105% | 103% |
| CN(C)c1cc(NC(=O)CNC(C)(C)C)c(O)c2c1C[C@H]1C[C@H]3[C@H](N(C)C)C(=O)C(C(N)=O)C(=O)[C@@]3(O)C(=O)C1C2=O (stereo not given in full) [Tigecycline] | < 0.0301 | < 0.0301 | < 0.0301 | < 0.0301 | 108% | 95% | 96.4% | 94.6% | 79.4% | 111% | 82.5% | 104% | 94.8% | 66.5% | 119% | 84% | 90.8% | 96% | 88.9% |
| COc1ccc2c(C(=S)N(C)CC(=O)O)cccc2c1C(F)(F)F [Tolrestat] | < 0.0301 | < 0.0301 | < 0.0301 | < 0.0301 | 94.8% | 103% | 105% | 106% | 106% | 91.8% | 95.3% | 95.6% | 93.5% | 101% | 105% | 149% | 63.3% | 105% | 88.5% |
